Test [1] has as its system human fetal lung (HFL-1). Description: Cytotoxicity against normal cell line HFL-1. The test is classed as cell-based. The conditions noted are these: 24 h incubation, mean ± standard error. How it is done: Three human cancer cell lines, PC-3 (human prostate adenocarcinoma, metastatic), […], were used to test the anti-proliferative activity of β-enaminonitrile (4a–p) using the MTT colorimetric assay at concentrations ranging from 0–100 μM. The representative active cytotoxic substances 4a, 4c, 4d, 4e, 4g, 4i, 4k and 4o were also tested against two normal cell lines, human fetal lung (HFL-1) and human diploid fibroblasts (WI-38), as well as Adriamycin (ADR)-resistant human breast cancer cells (MCF-7/ADR). The reference cytotoxic agents, Vinblastine and Doxorubicin, were used in the tests.
The tumor cell lines MCF-7, HepG-2, PC-3 MCF-7/ADR, HFL-1 and (WI-38) were obtained from the American Type Culture Collection (ATCC, Rockville, MD, USA). The cells were grown on RPMI-1640 medium supplemented with 10% inactivated fetal calf serum and 50 µg/mL gentamycin. The cells were maintained at 37 ^οC in a humidified atmosphere with 5% CO2 and were subcultured two to three times a week.
The cytotoxic activity was appraised using the 3-(4,5-dimethylthiazol-2-yl)-2,5-diphenyltetrazolium bromide (MTT) colorimetric assay for the antitumor cell lines, as reported previously, and the ELISA assay for MCF-7/ADR [69].

Test [2] addresses T1, P-gp activity (efflux function) (Homo sapiens, UniProt P08183).
T1 construct: measuring intracellular accumulation of Rhodamine 123 in MCF-7/ADR cells; endogenous in cells; host or cells: MCF-7/ADR (Adriamycin-resistant human breast cancer cells)
The experiment in a line: Rhodamine 123 accumulation assay in MCF-7/ADR cells. It counts as cell-based. The following applies: 4 h with compound then 5.25 μM Rho123 for 30 min. How it is done:
Furthermore, the reversion of P-gp-mediated multidrug resistance could be achieved by the down-regulation of P-gp expression and/or P-gp efflux function inhibition.
Briefly, resistant cancer cells were harvested, washed twice and counted. […] of each well was measured using a Spectramax Gemini fluorescence microplate reader (Molecular Devices, Sunnyvale, CA, USA). The total content of Rhodamine in each sample was determined by comparison with a Rhodamine standard curve.

In test [3] the test system is MCF-7/ADR cells. The experiment in a line: Cell cycle analysis by flow cytometry (PI staining). It counts as cell-based, human. The following applies: IC50 values, 24 h. From the text: Cancer cells undergo unscheduled cell divisions by the down-regulation of the four cell cycle stages (G1, S, G2 and M); therefore, the development of anticancer agents targeting cell cycle arrest represents an important therapeutic intervention. P-gp breast cancer resistance proteins (BCRP) inhibit the action of anticancer drugs on cell cycle arrest by preventing intercellular drug accumulation. By using flow cytometry and the FACS Calibers, it was possible to examine how the potent-produced compounds (4a, 4c, 4e, 4g and 4i) affected the regulation of cell cycle progression in MCF-7/ADR cells (Becton Dickinson). […] The outcomes of the cell cycle progression give three different results showing compounds with cell cyclic arrest at the G1 phase (4d and 4e), while there were other compounds at the S phase (4a and 4c) and a final compound with cell cycle arrest at both of the G1/S phases (4g and 4i). […] According to the cell cycle analysis, the tested derivatives considerably stopped the MCF-7/ADR cancer cells in the G1/S phase.
Figure 6 Effects of compounds 4a, 4c–4e, 4g and 4i on the cell cycle phases of MCF-7/ADR cells. […] Their DNA content was analyzed using fluorescence flow cytometry. […] The data are expressed as the mean ± SD of three independent experiments in triplicate. Significances are shown in comparison to control cells (* p < 0.001). TEXT PRINTED IN THE PICTURE: (a) DOX.: %DIP G1 63.03% (MCF7/ADR); %DIP G2/M 13.09% (MCF7/ADR); %DIP S 23.88% (MCF7/ADR) | (a) 4a: %DIP G1 41.63% (MCF7/ADR); %DIP G2/M 5.55% (MCF7/ADR); %DIP S 52.82% (MCF7/ADR) | (a) 4c: %DIP G1 52.13% (MCF7/ADR); %DIP G2/M 9.91% (MCF7/ADR); %DIP S 37.96% (MCF7/ADR) | (a) 4d: %DIP G1 59.42% (MCF7/ADR); %DIP G2/M 13.75% (MCF7/ADR); %DIP S 26.83% (MCF7/ADR) | (a) 4e: %DIP G1 67.32% (MCF7/ADR); %DIP G2/M 8.6% (MCF7/ADR); %DIP S 24.08% (MCF7/ADR) | (a) 4g: %DIP G1 59.37% (MCF7/ADR); %DIP G2/M 3.67% (MCF7/ADR); %DIP S 36.96% (MCF7/ADR) | (a) 4i: %DIP G1 5.68% (MCF7/ADR); %DIP G2/M 57.61% (MCF7/ADR); %DIP S 36.71% (MCF7/ADR) DOUBTS OF THE COPYIST ABOUT THIS PICTURE: The print in the histogram insets of panel (a) is very small and blurred; 3, 5, 6, 8 and 9 cannot be told apart with certainty in any value, so all values below are best readings. / DOX., %DIP G1 63.03%: 3s may be 8s / DOX., %DIP G2/M 13.09%: 9 may be 8; 3 may be 5 / DOX., %DIP S 23.88%: 8s may be 3 or 6 / 4a, %DIP G1 41.63%: 6 or 8; 3 or 8 / 4a, %DIP G2/M 5.55%: 5s may be 6 or 3 / 4a, %DIP S 52.82%: 8 may be 3 or 6 / 4c, %DIP G1 52.13%: 3 or 8 / 4c, %DIP G2/M 9.91%: 9s may be 8 / 4c, %DIP S 37.96%: 9 or 8; 6 or 8 / 4d, %DIP G1 59.42%: 9 or 8 / 4d, %DIP G2/M 13.75%: 3 or 8; 5 or 6 / 4d, %DIP S 26.83%: 6, 8 and 3 uncertain / 4e, %DIP G1 67.32%: 6 or 8; 3 or 8 / 4e, %DIP G2/M 8.6%: 8 and 6 uncertain; a further digit may be missing / 4e, %DIP S 24.08%: 8 may be 3 or 6 / 4g, %DIP G1 59.37%: 9 or 8; 3 or 8 / 4g, %DIP G2/M 3.67%: 3 or 8; 6 or 8 / 4g, %DIP S 36.96%: 3, 6 and 9 uncertain / 4i, %DIP G1 5.68%: 5, 6 and 8 uncertain; the value seems to be printed against G1 although a leading digit could be hidden / 4i, %DIP G2/M 57.61%: 5 or 6; 6 or 8 / 4i, %DIP S 36.71%: 3 or 8; 6 or 8 / The untreated control (Cont.) also carries printed percentages (%DIP G1 55.38%, %DIP G2/M 15.01%, %DIP S 29.61%) but was left out because it is not a substance.
On the technique in general: Flow cytometry measures light scatter and fluorescence of single cells or particles in a stream.

The IC50 is the concentration that gives 50% inhibition.

T1 sequence (P08183 whole entry): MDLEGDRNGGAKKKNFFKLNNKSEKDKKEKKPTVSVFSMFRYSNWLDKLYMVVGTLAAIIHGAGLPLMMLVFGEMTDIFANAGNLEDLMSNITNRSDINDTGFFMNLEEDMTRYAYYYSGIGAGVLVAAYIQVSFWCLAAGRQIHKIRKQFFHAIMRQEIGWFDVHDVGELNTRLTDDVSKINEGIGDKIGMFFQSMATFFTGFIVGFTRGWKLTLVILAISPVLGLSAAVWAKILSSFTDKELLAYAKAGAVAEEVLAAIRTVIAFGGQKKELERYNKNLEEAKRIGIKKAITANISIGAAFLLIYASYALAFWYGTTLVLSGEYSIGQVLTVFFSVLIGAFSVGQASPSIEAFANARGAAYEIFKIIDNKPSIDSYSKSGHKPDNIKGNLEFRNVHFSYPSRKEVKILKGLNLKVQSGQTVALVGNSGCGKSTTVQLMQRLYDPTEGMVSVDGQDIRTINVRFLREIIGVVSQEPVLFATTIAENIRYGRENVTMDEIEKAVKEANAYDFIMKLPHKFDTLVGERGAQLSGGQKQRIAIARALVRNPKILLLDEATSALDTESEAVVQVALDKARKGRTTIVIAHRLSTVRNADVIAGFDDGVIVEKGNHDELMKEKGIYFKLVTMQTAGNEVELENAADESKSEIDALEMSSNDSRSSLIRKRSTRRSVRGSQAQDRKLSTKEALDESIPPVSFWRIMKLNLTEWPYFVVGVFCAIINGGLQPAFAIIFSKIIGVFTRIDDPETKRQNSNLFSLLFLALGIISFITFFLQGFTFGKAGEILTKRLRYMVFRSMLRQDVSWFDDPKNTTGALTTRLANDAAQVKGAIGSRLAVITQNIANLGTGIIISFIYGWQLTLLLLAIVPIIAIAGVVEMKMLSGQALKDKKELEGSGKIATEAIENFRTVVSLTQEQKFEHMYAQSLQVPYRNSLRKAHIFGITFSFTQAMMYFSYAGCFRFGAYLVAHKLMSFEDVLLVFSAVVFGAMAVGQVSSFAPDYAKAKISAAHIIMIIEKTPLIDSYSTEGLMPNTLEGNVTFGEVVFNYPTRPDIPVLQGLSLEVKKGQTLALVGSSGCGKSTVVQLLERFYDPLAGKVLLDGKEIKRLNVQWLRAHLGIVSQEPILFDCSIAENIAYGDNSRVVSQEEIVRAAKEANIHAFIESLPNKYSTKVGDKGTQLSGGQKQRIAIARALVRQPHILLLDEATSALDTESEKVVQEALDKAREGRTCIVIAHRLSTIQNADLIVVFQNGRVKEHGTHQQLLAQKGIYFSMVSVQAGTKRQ

For `N#CC1=C(N)Oc2ccc3ccc(O)cc3c2C1c1ccc(F)cc1F` (stereo not shown) [4a, 3-Amino-1-(2,4-Difluorophenyl)-9-Hydroxy-1H-Benzo[f]chromene-2-Carbonitrile], the IC50 came out at 26.5 ± 0.3 µM in test [1] (Homo sapiens, HFL1, 24 h) and 23.3 µM in test [2]. Besides, the “cell cycle arrest phase” value in test [3] was “S phase”.
As to `N#CC1=C(N)Oc2ccc3ccc(O)cc3c2C1c1cccc(Cl)c1Cl` (stereo not shown) [4c, 3-Amino-1-(2,3-Dichlorophenyl)-9-Hydroxy-1H-Benzo[f]chromene-2-Carbonitrile], the concentration for half-maximal inhibition (IC50) was determined as 22.1 ± 0.2 µM in test [1] (Homo sapiens, HFL1, 24 h) and 28.7 µM in test [2]. For the same compound, the “cell cycle arrest phase” value in test [3] was “S phase”.
Take `N#CC1=C(N)Oc2ccc3ccc(O)cc3c2C1c1ccc(Cl)cc1Cl` (stereo not shown) [4d, 3-Amino-1-(2,4-Dichlorophenyl)-9-Hydroxy-1H-Benzo[f]chromene-2-Carbonitrile]: the IC50 in test [1] (Homo sapiens, HFL1, 24 h) was 20.1 ± 0.4 µM; in test [2], 46.6 µM. Further, in test [3], the “cell cycle arrest phase” value is given as “G1 phase”.
`N#CC1=C(N)Oc2ccc3ccc(O)cc3c2C1c1cc(Cl)ccc1Cl` (stereo not shown) [4e, 3-Amino-1-(2,5-Dichlorophenyl)-9-Hydroxy-1H-Benzo[f]chromene-2-Carbonitrile]: the IC50 was 24.1 ± 0.3 µM in test [1] (Homo sapiens, HFL1, 24 h) and 14.6 µM in test [2]. In addition, the “cell cycle arrest phase” value in test [3] is given as “G1 phase”.
As to `N#CC1=C(N)Oc2ccc3ccc(O)cc3c2C1c1ccc(Cl)c(Cl)c1` (stereo not shown) [4g, 3-Amino-1-(3,4-Dichlorophenyl)-9-Hydroxy-1H-Benzo[f]chromene-2-Carbonitrile], the IC50 in test [1] (Homo sapiens, HFL1, 24 h) is 27.4 ± 0.1 µM; in test [2] it was 36.7 µM. Further, the “cell cycle arrest phase” value in test [3] was “G1/S phases”.
With `N#CC1=C(N)Oc2ccc3ccc(O)cc3c2C1c1cc(Br)cc(Br)c1` (stereo not shown) [4i, 3-Amino-1-(3,5-Dibromophenyl)-9-Hydroxy-1H-Benzo[f]chromene-2-Carbonitrile], the IC50 in test [1] was 38.1 ± 0.4 µM; in test [1] (Homo sapiens, HFL1, 24 h), 19.1 to 30.1 µM; in test [2] it was 55.3 µM. Besides, the “cell cycle arrest phase” value in test [3] is recorded as “G1/S phases”.

For the origin of these results see paper PMC9820082, “Synthesis of 9-Hydroxy-1H-Benzo[f]chromene Derivatives with Effective Cytotoxic Activity on MCF7/ADR, P-Glycoprotein Inhibitors, Cell Cycle Arrest and Apoptosis Effects” (International Journal of Molecular Sciences, 2022).
